Where no end group is shown, it is not given here. [ ]: non-standard residue; d: D form. The star is where a group is joined. FITC = O=C1OC2(c3ccc(O)cc3Oc3cc(O)ccc32)c2ccc(NC(=S)*)cc21; pS = N[C@@H](COP(=O)(O)O)C(=O)O; Ahx = NCCCCCC(=O)O
Tests used:
[1] = system: phospho Ser 283-specific BUB-1 antibody; test: Peptide competition of anti-phospho Ser 283 BUB-1 antibody in immunofluorescence; settings: antibody dilutions 1:1,000 and 1:10,000 incubated with 1 µM and 10 µM peptide; fixed oocytes
Protocol: The antibody was generated by Moravian Biotec by immunising rabbits with the following peptide: RRRHL(pS)PVSEKTC. Serum was adsorbed with a non-phosphorylated peptide (RRRHLSPVSEKTC) followed by affinity purification with the antigenic, phosphorylated peptide. Different fractions were tested in immunofluorescence by incubating different dilutions (1:1,000 and 1:10,000) with 1 µM and 10 µM of either non-phosphorylated or phosphorylated peptide.
Worms were placed on 4 µl of M9 worm buffer in a poly-D-lysine (Sigma, P1024)-coated slide, and a […] coverslip was gently laid on top. Once the worms extruded the embryos, slides were placed on a metal block on dry ice for >10 min. The coverslip was then flicked off with a scalpel blade, and the samples were fixed in methanol at […] for 30 min. After blocking in phosphate-buffered saline (PBS) buffer plus 3% bovine serum albumin and 0.1% Triton X-100 (AbDil), samples were incubated overnight at 4°C with anti-BUB-1 ([Desai et al., 2003]) and anti-tubulin (1/400, clone DM1α, Sigma–Aldrich) in AbDil. After three washes with PBS plus 0.1% Tween, secondary antibodies were added at 1/1000 (goat anti-mouse and goat anti-rabbit conjugated to Alexa Fluor 488, Alexa Fluor 594, Thermo Scientific). […]

[2] = system: purified recombinant PPTR-2; test: Fluorescence polarisation, LxxIxE motif-containing FITC-labelled synthetic peptide with purified recombinant PPTR-2; format: binding, C. elegans; settings: FITC-labelled peptide 0.5–1 µM, increasing PPTR-2 (1:2 serial dilution), FP buffer 50 mM NaP pH 7.5, 150 mM NaCl, 0.5 mM TCEP, 30 min, PheraStar FS, technical triplicates, representative experiment; for PPTR-2 interaction (binding) assessed using fluorescence polarisation: Figure 4C
Protocol: Figure 4. B56α^PPTR-1 and B56γ^PPTR-2 are targeted through a LxxIxE motif in BUB-1. (A) C. elegans BUB-1 LxxIxE SLiM is shown aligned with BubR1 and Repoman short linear motifs (SLiMs). The only change within the LxxIxE sequence itself is the presence of a valine instead of isoleucine, which still fits within the consensus ([Wang et al., 2016]). The alignment was performed using Clustal Omega and visualised with Jalview ([Waterhouse et al., 2009]). (B) Disorder prediction of full-length BUB-1 was done using IUPRED2A ([Erdős and Dosztányi, 2020]). All prevuously characterised BUB-1 domains fall within ordered regions < 0.5. The putative SLiM is in a disordered region (IUPRED score ~0.8). (C) PPTR-2 interaction with a LxxIxE motif-containing synthetic peptide was assessed using fluorescence polarisation. Increasing amounts of purified recombinant PPTR-2 were incubated with FITC-labelled wild-type or L282A,V285A mutant peptide. […] (D) Schematic showing the LxxIxE motif in BUB-1 and the BUB-1^L282A,V285A mutant. […] (F) PPTR-1::GFP levels were measured in wild-type and BUB-1^L282A,V285A oocytes throughout meiosis I and the mean ± s.e.m is shown in the graph. […] (H) Midbivalent/central spindle PPTR-2::GFP levels were measured in wild-type and BUB-1^L282A,V285A oocytes throughout meiosis I, and the mean ± s.e.m is shown in the graph. […] (J) Representative, spindle-wide (20 pixels) line profiles are shown for wild-type (top) and BUB-1^L282A,V285A mutant (bottom) measured in prometaphase I (40 s before metaphase I). […] (K) The angle of bivalents 80 s before segregation in meiosis I relative to the average angle of the spindle was measured in wild-type and in BUB-1^L282A,V285A oocytes. […] N represents number of oocytes and n number of bivalents measured. p value shown in the figure was obtained using a Mann–Whitney test. (L) Distance of bivalents 80 s before segregation in meiosis I relative to the centre of the spindle was measured in wild-type and BUB-1^L282A,V285A oocytes. […]

Substance	competition of antibody signal in immunofluorescence [1]	PPTR-2 interaction (binding) assessed using fluorescence polarisation [2]	other results
RRRHL[pS]PVSEKTC	Only the phosphorylated peptide compited out the signal		
RRRHLSPVSEKTC	Only the phosphorylated peptide compited out the signal		
{FITC-Ahx}-NPRRRHLSPVSEKTVDDEEE [BUB-1, FITC-labelled wild-type BUB-1 LxxIxE motif-containing synthetic peptide]		binds to purified recombinant PPTR-2	
{FITC-Ahx}-NPRRRHASPASEKTVDDEEE [LAVA, FITC-labelled L282A,V285A mutant BUB-1 peptide]		this binding is abolished	
FITC-Ahx-NPRRRHLphSPVSEKTVDDEEE [pBUB-1, FITC-labelled BUB-1 LxxIxE peptide phosphorylated at serine 283]			relative affinity for recombinant B56γ^PPTR-2, phosphorylated versus non-phosphorylated peptide ([2]; Figure 5F): higher affinity than non-phosphorylated LxxIxE peptide

From article PMC7787666, “BUB-1 targets PP2A:B56 to regulate chromosome congression during meiosis I in C. elegans oocytes” (eLife, 2020)
